Results from patent publication US20020137929A1, “1 - (3-heterocyclylphenyl) isothiourea, -isourea, -guanidine and -amidine herbicidal agents” (Intellectual Property Department, BASF Aktiengesellschaft, priority 1998, published 2002).

Key:
[1] = tested on: GLXMAW (Soybean, Williams); assay: Preemergence herbicidal evaluation; format: in vivo, Glycine max, (L.) Merr. cv Williams; settings: rated 4-5 weeks after treatment
In short: (§1)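 Preemergence soil application of compound, sprayed in aqueous acetone at rates equivalent to about 0.0156 to 0.500 kg per hectare onto freshly sown cups. Plant response was judged by eye on a 0-9 scale four to five weeks later.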

GALAP (Galium) = assay: Preemergence herbicidal evaluation; format: in vivo, Galium aparine; settings: rated 4-5 weeks after treatment
In short: as §1

[2] = tested on: CHEAL (Lambsquarters, Common); assay: Postemergence herbicidal evaluation; format: in vivo, Chenopodium album; settings: for CHEAL herbicidal rating: postemergence
In short: (§2)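 ~2-wk seedlings; postemergence spray, 40 psi; vehicle 1:1 acetone:water + 0.5% Tween 20; rate ≈0.0156–0.500 kg/ha; greenhouse hold; scored 4–5 wk after treatment, 0–9 scale vs control; repeat tests averaged.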

[3] = tested on: TRZAWR (Wheat, Winter, cv Riband); assay: Preemergence herbicidal evaluation; format: in vivo, Triticum aestivum; settings: rated 4-5 weeks after treatment
In short: as §1

CASOB (Sicklepod) = assay: Postemergence herbicidal evaluation; format: in vivo, Cassia obtusifolia; settings: for CASOB herbicidal rating: postemergence
In short: as §2

CYPIR (Rice Flatsedge) = assay: Preemergence weed control under flooded paddy conditions; format: in vivo, Cyperus iria; settings: rated 3-4 weeks after treatment
In short: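 Silt loam, seeds in top 0.5 cm; flood held 1.5-3 cm; test cpd as acetone/water 50/50 into flood water, ~0.0313-0.500 kg/ha a.i.; greenhouse 3-4 wk; visual 0-9 score vs control.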

SETVI (Foxtail, Green) = assay: Preemergence herbicidal evaluation; format: in vivo, Setaria viridis; settings: rated 4-5 weeks after treatment
In short: as §1

[4] = tested on: SAGPY (Arrowhead (Pygmaea)); assay: Preemergence weed control under flooded paddy conditions; format: in vivo, Sagittaria pygmaea; settings: rated 3-4 weeks after treatment
In short: (§3)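 Greenhouse paddy assay. Acetone/water (50/50 v/v) solutions dosed into flood water, equivalent to about 0.0313 to 0.500 kg/ha active ingredient, over seeds planted 0.5 cm deep in silt loam. Score: 0-9 visual, based on stand, vigor, malformation, size and chlorosis, 3 to 4 weeks after treatment.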

CYPSE (Flatsedge) = assay: Postemergence weed control under flooded paddy conditions; format: in vivo, Cyperus serotinus; settings: postemergence weeds, 3-4 weeks after treatment
In short: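 Containers holding 3–5 cm weeds and rice at 1.5–2.5 leaves are flooded to 1.5–3 cm above soil. Compound in 50/50 v/v aqueous/acetone is then added directly to the water, about 0.0313–0.500 kg/ha. Plants are kept in the greenhouse and rated 0–9 visually at 3–4 weeks.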

ECHCG (Barnyardgrass) = assay: Postemergence herbicidal evaluation; format: in vivo, Echinochloa crus-galli; settings: for ECHCG herbicidal rating: postemergence
In short: as §2

MOOVA (Monochoria) = assay: Preemergence weed control under flooded paddy conditions; format: in vivo, Monochoria vaginalis; settings: rated 3-4 weeks after treatment
In short: as §3

ZEAMX (Corn, Field) = assay: Preemergence herbicidal evaluation; format: in vivo, Zea mays; settings: rated 4-5 weeks after treatment
In short: as §1

ORYSAT (Rice, Tebonnet) [5] = assay: Postemergence herbicidal evaluation; format: in vivo, Oryza sativa, (L.) Tebonnet; settings: for ORYSAT herbicidal rating: postemergence
In short: as §2

ORYSAT (Rice, Tebonnet) [6] = assay: Preemergence herbicidal evaluation; format: in vivo, Oryza sativa, (L.) Tebonnet; settings: rated 4-5 weeks after treatment
In short: as §1

CCC1SC(=Nc2cc(-n3c(=O)cc(C(F)(F)F)n(C)c3=O)c(F)cc2Cl)N(C)C1=O (stereo not shown) [Compound 10]
GLXMAW preemergence herbicidal rating ([1]; rate 0.0156 kg/ha): 2.0
GLXMAW preemergence herbicidal rating ([1]; rate 0.0313 kg/ha): 2.3
GLXMAW preemergence herbicidal rating ([1]; rate 0.0625 kg/ha): 3.7
GLXMAW preemergence herbicidal rating ([1]; rate 0.1250 kg/ha): 6.7
GLXMAW preemergence herbicidal rating ([1]; rate 0.2500 kg/ha): 7.0
GALAP preemergence herbicidal rating (GALAP (Galium); rate 0.0156 kg/ha): 0.5
GALAP preemergence herbicidal rating (GALAP (Galium); rate 0.0313 kg/ha): 2.0
GALAP preemergence herbicidal rating (GALAP (Galium); rate 0.0625 kg/ha): 4.5
GALAP preemergence herbicidal rating (GALAP (Galium); rate 0.1250 kg/ha): 9.0
GALAP preemergence herbicidal rating (GALAP (Galium); rate 0.2500 kg/ha): 9.0
CHEAL herbicidal rating ([2]; rate 0.0156 kg/ha): 7.0
CHEAL herbicidal rating ([2]; rate 0.0313 kg/ha): 7.0
CHEAL herbicidal rating ([2]; rate 0.0625 kg/ha): 9.0
CHEAL herbicidal rating ([2]; rate 0.1250 kg/ha): 9.0
TRZAWR preemergence herbicidal rating ([3]; rate 0.0156 kg/ha): 1.0
TRZAWR preemergence herbicidal rating ([3]; rate 0.0313 kg/ha): 3.5
TRZAWR preemergence herbicidal rating ([3]; rate 0.0625 kg/ha): 5.5
TRZAWR preemergence herbicidal rating ([3]; rate 0.1250 kg/ha): 6.5
TRZAWR preemergence herbicidal rating ([3]; rate 0.2500 kg/ha): 7.5
CASOB herbicidal rating (CASOB (Sicklepod); rate 0.0156 kg/ha): 0.0
CASOB herbicidal rating (CASOB (Sicklepod); rate 0.0313 kg/ha): 0.0
CASOB herbicidal rating (CASOB (Sicklepod); rate 0.0625 kg/ha): 0.5
CASOB herbicidal rating (CASOB (Sicklepod); rate 0.1250 kg/ha): 3.0
Herbicidal rating CYPIR (CYPIR (Rice Flatsedge); 0.0313 kg/ha): 0.0
Herbicidal rating CYPIR (CYPIR (Rice Flatsedge); 0.0625 kg/ha): 0.0
Herbicidal rating CYPIR (CYPIR (Rice Flatsedge); 0.1250 kg/ha): 2.0
Herbicidal rating CYPIR (CYPIR (Rice Flatsedge); 0.2500 kg/ha): 4.0
SETVI preemergence herbicidal rating (SETVI (Foxtail, Green); rate 0.0156 kg/ha): 2.3
SETVI preemergence herbicidal rating (SETVI (Foxtail, Green); rate 0.0313 kg/ha): 5.7
SETVI preemergence herbicidal rating (SETVI (Foxtail, Green); rate 0.0625 kg/ha): 9.0
SETVI preemergence herbicidal rating (SETVI (Foxtail, Green); rate 0.1250 kg/ha): 9.0
SETVI preemergence herbicidal rating (SETVI (Foxtail, Green); rate 0.2500 kg/ha): 9.0
Herbicidal rating SAGPY ([4]; 0.0313 kg/ha): 0.0
Herbicidal rating SAGPY ([4]; 0.0625 kg/ha): 0.0
Herbicidal rating SAGPY ([4]; 0.1250 kg/ha): 0.0
Herbicidal rating SAGPY ([4]; 0.2500 kg/ha): 0.0
Herbicidal rating CYPSE (CYPSE (Flatsedge); rate 0.0313 kg/ha): 0.0
Herbicidal rating CYPSE (CYPSE (Flatsedge); rate 0.0625 kg/ha): 0.0
Herbicidal rating CYPSE (CYPSE (Flatsedge); rate 0.1250 kg/ha): 0.0
Herbicidal rating CYPSE (CYPSE (Flatsedge); rate 0.2500 kg/ha): 0.0
ECHCG herbicidal rating (ECHCG (Barnyardgrass); rate 0.0156 kg/ha): 0.0
ECHCG herbicidal rating (ECHCG (Barnyardgrass); rate 0.0313 kg/ha): 0.0
ECHCG herbicidal rating (ECHCG (Barnyardgrass); rate 0.0625 kg/ha): 0.0
ECHCG herbicidal rating (ECHCG (Barnyardgrass); rate 0.1250 kg/ha): 1.0
Herbicidal rating MOOVA (MOOVA (Monochoria); 0.0313 kg/ha): 9.0
Herbicidal rating MOOVA (MOOVA (Monochoria); 0.0625 kg/ha): 9.0
Herbicidal rating MOOVA (MOOVA (Monochoria); 0.1250 kg/ha): 9.0
Herbicidal rating MOOVA (MOOVA (Monochoria); 0.2500 kg/ha): 9.0
ZEAMX preemergence herbicidal rating (ZEAMX (Corn, Field); rate 0.0156 kg/ha): 4.7
ZEAMX preemergence herbicidal rating (ZEAMX (Corn, Field); rate 0.0313 kg/ha): 6.7
ZEAMX preemergence herbicidal rating (ZEAMX (Corn, Field); rate 0.0625 kg/ha): 7.0
ZEAMX preemergence herbicidal rating (ZEAMX (Corn, Field); rate 0.1250 kg/ha): 7.3
ZEAMX preemergence herbicidal rating (ZEAMX (Corn, Field); rate 0.2500 kg/ha): 8.0
ORYSAT herbicidal rating (ORYSAT (Rice, Tebonnet) [5]; rate 0.0156 kg/ha): 1.8
ORYSAT herbicidal rating (ORYSAT (Rice, Tebonnet) [5]; rate 0.0313 kg/ha): 2.5
ORYSAT herbicidal rating (ORYSAT (Rice, Tebonnet) [5]; rate 0.0625 kg/ha): 2.5
ORYSAT herbicidal rating (ORYSAT (Rice, Tebonnet) [5]; rate 0.1250 kg/ha): 3.0
ORYSAT preemergence herbicidal rating (ORYSAT (Rice, Tebonnet) [6]; rate 0.0156 kg/ha): 1.0
ORYSAT preemergence herbicidal rating (ORYSAT (Rice, Tebonnet) [6]; rate 0.0313 kg/ha): 3.0
ORYSAT preemergence herbicidal rating (ORYSAT (Rice, Tebonnet) [6]; rate 0.0625 kg/ha): 4.5
ORYSAT preemergence herbicidal rating (ORYSAT (Rice, Tebonnet) [6]; rate 0.1250 kg/ha): 6.5
ORYSAT preemergence herbicidal rating (ORYSAT (Rice, Tebonnet) [6]; rate 0.2500 kg/ha): 7.5

Cn1c(C(F)(F)F)cc(=O)n(-c2cc(N=C3SCC(=O)N3CCC(=O)O)c(Cl)cc2F)c1=O [Compound 31, 2-{{2-Chloro-5-[3,6-dihydro-3-methyl-2,6-dioxo-4-(trifluoromethyl)-1(2H)-pyrimidinyl]-4-fluoro-phenyl}imino}-4-oxo-3-thiazolidinepropionic acid]
Preemergence herbicidal rating GLXMAW ([1]; rate 0.0625 kg/ha): 3.0
Preemergence herbicidal rating GLXMAW ([1]; rate 0.1250 kg/ha): 5.0
Preemergence herbicidal rating GLXMAW ([1]; rate 0.2500 kg/ha): 6.0
Preemergence herbicidal rating GALAP (GALAP (Galium); rate 0.0625 kg/ha): 0.0
Preemergence herbicidal rating GALAP (GALAP (Galium); rate 0.2500 kg/ha): 6.0
Postemergence herbicidal rating CHEAL ([2]; Rate 0.0158 kg/ha): 0.0
Postemergence herbicidal rating CHEAL ([2]; Rate 0.0315 kg/ha): 2.0
Postemergence herbicidal rating CHEAL ([2]; Rate 0.0630 kg/ha): 7.0
Preemergence herbicidal rating TRZAWR ([3]; rate 0.0625 kg/ha): 0.0
Preemergence herbicidal rating TRZAWR ([3]; rate 0.1250 kg/ha): 3.0
Preemergence herbicidal rating TRZAWR ([3]; rate 0.2500 kg/ha): 7.0
Postemergence herbicidal rating CASOB (CASOB (Sicklepod); Rate 0.0158 kg/ha): 0.0
Postemergence herbicidal rating CASOB (CASOB (Sicklepod); Rate 0.0315 kg/ha): 0.0
Postemergence herbicidal rating CASOB (CASOB (Sicklepod); Rate 0.0630 kg/ha): 0.0
Herbicidal rating CYPIR (CYPIR (Rice Flatsedge); 0.0625 kg/ha): 0.0
Herbicidal rating CYPIR (CYPIR (Rice Flatsedge); 0.1250 kg/ha): 0.0
Herbicidal rating CYPIR (CYPIR (Rice Flatsedge); 0.2500 kg/ha): 2.5
Preemergence herbicidal rating SETVI (SETVI (Foxtail, Green); rate 0.0625 kg/ha): 1.0
Preemergence herbicidal rating SETVI (SETVI (Foxtail, Green); rate 0.1250 kg/ha): 9.0
Preemergence herbicidal rating SETVI (SETVI (Foxtail, Green); rate 0.2500 kg/ha): 9.0
Herbicidal rating SAGPY ([4]; 0.0625 kg/ha): 0.0
Herbicidal rating SAGPY ([4]; 0.1250 kg/ha): 0.0
Herbicidal rating SAGPY ([4]; 0.2500 kg/ha): 0.0
Herbicidal rating CYPSE (CYPSE (Flatsedge); rate 0.0625 kg/ha): 0.0
Herbicidal rating CYPSE (CYPSE (Flatsedge); rate 0.1250 kg/ha): 0.0
Herbicidal rating CYPSE (CYPSE (Flatsedge); rate 0.2500 kg/ha): 0.0
Postemergence herbicidal rating ECHCG (ECHCG (Barnyardgrass); Rate 0.0158 kg/ha): 0.0
Postemergence herbicidal rating ECHCG (ECHCG (Barnyardgrass); Rate 0.0315 kg/ha): 0.0
Postemergence herbicidal rating ECHCG (ECHCG (Barnyardgrass); Rate 0.0630 kg/ha): 5.0
Herbicidal rating MOOVA (MOOVA (Monochoria); 0.0625 kg/ha): 0.0
Herbicidal rating MOOVA (MOOVA (Monochoria); 0.1250 kg/ha): 0.0
Herbicidal rating MOOVA (MOOVA (Monochoria); 0.2500 kg/ha): 2.5
Preemergence herbicidal rating ZEAMX (ZEAMX (Corn, Field); rate 0.0625 kg/ha): 3.0
Preemergence herbicidal rating ZEAMX (ZEAMX (Corn, Field); rate 0.1250 kg/ha): 7.0
Preemergence herbicidal rating ZEAMX (ZEAMX (Corn, Field); rate 0.2500 kg/ha): 9.0
Postemergence herbicidal rating ORYSAT (ORYSAT (Rice, Tebonnet) [5]; Rate 0.0158 kg/ha): 3.5
Postemergence herbicidal rating ORYSAT (ORYSAT (Rice, Tebonnet) [5]; Rate 0.0315 kg/ha): 4.0
Postemergence herbicidal rating ORYSAT (ORYSAT (Rice, Tebonnet) [5]; Rate 0.0630 kg/ha): 5.5
Preemergence herbicidal rating ORYSAT (ORYSAT (Rice, Tebonnet) [6]; rate 0.0625 kg/ha): 0.0
Preemergence herbicidal rating ORYSAT (ORYSAT (Rice, Tebonnet) [6]; rate 0.1250 kg/ha): 2.0
Preemergence herbicidal rating ORYSAT (ORYSAT (Rice, Tebonnet) [6]; rate 0.2500 kg/ha): 6.0
